Results as given in patent publication US11091428B2 (HAPLOGEN GMBH, priority 2016, dated 2021).

Columns and labels:
PLA2G16 = molecular target: T1, PLA2G16 (Homo sapiens, UniProt P53816); assay: Enzyme activity assay for PLA2G16 (Red/Green BODIPY PC-A2 fluorescence); assay type: biochemical; conditions: His-tagged PLA2G16, 4 min pre-incubation, 2 nM to 50 μM; read-out: IC50 values of the compounds determined in the enzyme activity assay for PLA2G16
T1 construct: Hexa-His (N); made in house; host or cells: E. coli BL21(DE3)
T1 sequence (P53816 1-162): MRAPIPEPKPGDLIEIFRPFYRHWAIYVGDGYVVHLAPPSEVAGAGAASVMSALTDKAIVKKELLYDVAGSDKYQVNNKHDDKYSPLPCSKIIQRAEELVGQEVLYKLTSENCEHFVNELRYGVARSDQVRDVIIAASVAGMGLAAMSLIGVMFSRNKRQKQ
How it was run: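 IC50 from non-linear fits of fluorescence rise (480/530 nm, 10 min) after adding Red/Green BODIPY PC-A2 mixed with DOPC/DOPG/cholesterol liposomes. Recombinant His-tagged human enzyme, bacterially expressed, was first exposed to inhibitor (2 nM–50 μM final) for 4 min in 50 mM Tris pH 8.5, 100 mM NaCl, 5 mM glutathione.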

[1] = system: picornaviruses (CVB1, HRV-A2, HRV-A23, EV-68); assay: Anti-picornavirus cytopathic effect (CPE) reduction assay on HeLa H1 cells; assay type: cell-based; conditions: Enterovirus B, HeLa H1, 48 h, HeLa H1 cells, 48 h, category from averaging the EC50 values from four picornaviruses (CVB1, HRV-A2, HRV-A23, EV68); read-out: EC50 values of the compounds determined in the anti-picornavirus assay
How it was run: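 Cytopathic-effect protection: EC50 from non-linear regression of cell viability (CellTiterBlue, 560/590 nm) 48 h post-infection, scaled between infected and mock-infected vehicle wells. Compound dilutions added to HeLa H1 cells 2 h before virus (MOI causing complete CPE within 2 days), in DMEM + 2% FBS; categories average the four viruses.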

| Structure (SMILES) | IC50 (PLA2G16) [nM] | EC50 [1] [nM] |
| --- | --- | --- |
| O=C(NC1CC1)C(=O)C1CCC(=O)N1Cc1cccc(Cl)c1 (centres unmarked) [FP 240, 2-{1-[(3-Chlorophenyl)methyl]-5-oxopyrrolidin-2-yl}-N-cyclopropyl-2-oxoacetamide] | < 1000 | 1000 to 10000 |
| CC(NS(=O)(=O)c1ccccc1)C(=O)C(=O)NCC1CC1 (centres unmarked) [FP 187, 3-Benzenesulfonamido-N-(cyclopropylmethyl)-2-oxobutanamide] | < 1000 | 1000 to 10000 |
| O=C(NC1CN(C(=O)C2CCCC2)C1)C(=O)[C@H]1CCC(=O)N1Cc1ccccc1 [FP 319, 2-[(2R)-1-Benzyl-5-oxopyrrolidin-2-yl]-N-(1-cyclopentanecarbonylazetidin-3-yl)-2-oxoacetamide] | < 1000 | 1000 to 10000 |
| CC(C(=O)C(=O)NCC1CCCC1)N(C=O)Cc1ccccc1 (centres unmarked) [FP 200, 3-(N-Benzylformamido)-N-(cyclopentylmethyl)-2-oxobutanamide] | < 1000 | < 1000 |
| CC(=O)NCCOCCOCCNC(=O)C(=O)C1CCC(=O)N1Cc1ccc(Cl)cc1 (centres unmarked) [FP 327, 2-{1-[(4-Chlorophenyl)methyl]-5-oxopyrrolidin-2-yl}-N-{2-[2-(2-acetamidoethoxy)-ethoxy]ethyl}-2-oxoacetamide] | 1000 to 10000 | > 10000 |
| O=C(NC1CCN(S(=O)(=O)C2CC2)CC1)C(=O)[C@H]1CCC(=O)N1Cc1ccccc1 [FP 320, 2-[(2R)-1-Benzyl-5-oxopyrrolidin-2-yl]-N-[1-(cyclopropanesulfonyl)piperidin-4-yl]-2-oxoacetamide] | < 1000 | < 1000 |
| C[C@H]1CC(=O)N(Cc2ccccc2)[C@@H]1C(=O)C(=O)NCC1CC1 (single isomer, unassigned) [FP 334] | < 1000 | 1000 to 10000 |
| CC(C(=O)C(=O)NCCOc1ccc(C(N)=O)cc1)N(C=O)C1CCCCC1 (centres unmarked) [FP 114, 4-{2-[3-(N-Cyclohexylformamido)-2-oxobutanamido]ethoxy}benzamide] | < 1000 | > 10000 |
| CC(NC(=O)c1cccc(Cl)c1)C(=O)C(=O)NCC1CC1 (centres unmarked) [FP 172, 3-[(3-Chlorophenyl)formamido]-N-(cyclopropylmethyl)-2-oxobutanamide] | < 1000 | 1000 to 10000 |
| CNC(=O)C(=O)C(CC(C)C)N(C=O)Cc1ccccc1 (centres unmarked) [FP 195, 3-(N-Benzylformamido)-N,5-dimethyl-2-oxohexanamide] | < 1000 | 1000 to 10000 |
| CC(C(=O)C(=O)NCCC1CCOCC1)N(C=O)C1CCCCC1 (centres unmarked) [FP 112, 3-(N-Cyclohexylformamido)-N-[2-(oxan-4-yl)ethyl]-2-oxobutanamide] | < 1000 | 1000 to 10000 |
| CC(C)OCCNC(=O)C(=O)[C@H]1CCC(=O)N1Cc1ccccc1 [FP 286, 2-[(2R)-1-Benzyl-5-oxopyrrolidin-2-yl]-2-oxo-N-[2-(propan-2-yloxy)ethyl]acetamide] | < 1000 | 1000 to 10000 |
| O=C(NC1CC(F)C1)C(=O)[C@H]1CCC(=O)N1Cc1ccccc1 (stereo partly drawn) [FP 294, 2-[(2R)-1-Benzyl-5-oxopyrrolidin-2-yl]-N-(3-fluorocyclobutyl)-2-oxoacetamide] | < 1000 | < 1000 |
| C[C@H](CO)NC(=O)C(=O)C1CCC(=O)N1Cc1ccc(Cl)cc1 (stereo partly drawn) [FP 258, 2-{1-[(4-Chlorophenyl)methyl]-5-oxopyrrolidin-2-yl}-N-[(2R)-1-hydroxypropan-2-yl]-2-oxoacetamide] | 1000 to 10000 | 1000 to 10000 |
| O=C(NC12CC(C1)C2)C(=O)[C@H]1CCC(=O)N1Cc1ccccc1 [FP 291, 2-[(2R)-1-Benzyl-5-oxopyrrolidin-2-yl]-N-{bicyclo[1.1.1]pentan-1-yl}-2-oxoacetamide] | < 1000 | < 1000 |
| COc1ccccc1N(C=O)C(C)C(=O)C(=O)NCc1ccncc1 (centres unmarked) [FP 90, 3-[N-(2-Methoxyphenyl)formamido]-2-oxo-N-[(pyridin-4-yl)methyl]butanamide] | < 1000 | > 10000 |

| Structure (SMILES) | IC50 (PLA2G16) [nM] | EC50 [1] [nM] |
| --- | --- | --- |
| CC(NC(=O)C1CCCCC1)C(=O)C(=O)NCC1CC1 (centres unmarked) [FP 161, 3-(Cyclohexylformamido)-N-(cyclopropylmethyl)-2-oxobutanamide] | < 1000 | > 10000 |
| CNC(=O)C(=O)C(CC1CCC1)N(C=O)Cc1ccccc1 (centres unmarked) [FP 196, 3-(N-Benzylformamido)-4-cyclobutyl-N-methyl-2-oxobutanamide] | < 1000 | 1000 to 10000 |
| CC(C)C(NC(=O)c1ccccc1)C(=O)C(=O)NCC1CC1 (centres unmarked) [FP 165, N-(Cyclopropylmethyl)-4-methyl-2-oxo-3-(phenylformamido)pentanamide] | < 1000 | > 10000 |
| COc1ccccc1S(=O)(=O)NC(C)C(=O)C(=O)NCC1CC1 (centres unmarked) [FP 220, N-(Cyclopropylmethyl)-3-(2-methoxybenzenesulfonamido)-2-oxobutanamide] | < 1000 | 1000 to 10000 |
| CC(C)CC(C(=O)C(=O)NCC1CC1)N(C=O)C[C@H]1CCOC1 (stereo partly drawn) [FP 65, N-(Cyclopropylmethyl)-5-methyl-2-oxo-3-(N-{[(3R)-oxolan-3-yl]methyl}formamido) hexanamide] | < 1000 | 1000 to 10000 |
| CC(C(=O)C(=O)NC(C)(C)c1cccc(Cl)c1)N(C=O)C1CCCCC1 (centres unmarked) [FP 27, N[2-(3-Chlorophenyl)propan-2-yl]-3-(N-cyclohexylformamido)-2-oxobutanamide] | < 1000 | < 1000 |
| CC(NC(=O)c1c(Cl)cccc1Cl)C(=O)C(=O)NCC1CC1 (centres unmarked) [FP 163, N-(Cyclopropylmethyl)-3-[(2,6-dichlorophenyl)formamido]-2-oxobutanamide] | < 1000 | < 1000 |
| O=CN(Cc1ccccc1)[C@@H](Cc1c[nH]cn1)C(=O)C(=O)NCC1CCCCC1 [FP 118, (3S)-3-(N-Benzylformamido)-N-(cyclohexylmethyl)-4-(1H-imidazol-4-yl)-2-oxobutanamide] | < 1000 | 1000 to 10000 |
| CCC(NC(=O)c1ccccc1)C(=O)C(=O)NCC1CC1 (centres unmarked) [FP 155, N-(Cyclopropylmethyl)-2-oxo-3-(phenylformamido)pentanamide] | < 1000 | 1000 to 10000 |
| C[C@@H]1CC(=O)N(Cc2ccccc2)[C@H]1C(=O)C(=O)NCC1CC1 (single isomer, unassigned) [FP 336] | < 1000 | < 1000 |
| CC(C(=O)C(=O)NCc1cccc(Cl)c1)N(C=O)CC1CCOCC1 (centres unmarked) [FP 24, N-[(3-Chlorophenyl)methyl]-3-{N[(oxan-4-yl)methyl]formamido}-2-oxobutanamide] | < 1000 | 1000 to 10000 |
| COc1ccccc1N(C=O)C(C)C(=O)C(=O)NCc1ccc(Cl)cc1 (centres unmarked) [FP 91, N-[(4-Chlorophenyl)methyl]-3-[N-(2-methoxyphenyl)formamido]-2-oxobutanamide] | < 1000 | < 1000 |
| Cc1ccccc1C(=O)N[C@H](C)C(=O)C(=O)NCC1CC1 (single isomer, unassigned) [FP 158] | < 1000 | 1000 to 10000 |
| CC(=O)NCCCCCCNC(=O)C(=O)C1CCC(=O)N1Cc1ccc(Cl)cc1 (centres unmarked) [FP 330, 2-{1-[(4-Chlorophenyl)methyl]-5-oxopyrrolidin-2-yl}-N-(6-acetamidohexyl)-2-oxoacetamide] | < 1000 | 1000 to 10000 |
| CC(NC(=O)c1ccncc1)C(=O)C(=O)NCC1CCCCC1 (centres unmarked) [FP 205, N-(Cyclohexylmethyl)-2-oxo-3-[(pyridin-4-yl)formamido]butanamide] | < 1000 | 1000 to 10000 |
